Test results from US11339151B2, “Aliphatic acid amide derivative” (Sumitomo Dainippon Pharma Co., Ltd., priority 2019, dated 2022).

Assays:
human 5-HT7 receptor [1] = target: T1, human 5-HT7 receptor (Homo sapiens (Human), UniProt P34969); experiment: Test 1: binding activity for human 5-HT7 receptor ([3H]SB-269970, CHO cell membrane fraction); conditions: [3H]SB-269970, room temperature 60 minutes
Protocol: (§1) Ki value was evaluated from dissociation constant which was calculated from saturated binding tests, and a substrate concentration, and it was used as an index for binding affinity.

[2] = Test 3-1: metabolic stability test in human hepatic microsome; assay type: in vitro ADME; conditions: microsome 0.1 mg/mL, test compound 0.1 μmol/L, 37° C., 30 minutes
Protocol: Test 3-1: Metabolic Stability Test in Human Hepatic Microsome
The metabolic stability of the present compound in human hepatic microsome was evaluated as mentioned below. Human hepatic microsome was obtained from Xenontech. Human hepatic microsome, NADPH, and each test compound were mixed in 25 mmol/L phosphate buffer solution (pH 7.4) to reach the following concentrations as shown below, and the mixture was incubated at 37° C. for 30 minutes. • Human hepatic microsome: 0.1 mg/mL • NADPH: 3.2 mmol/L • Test compound: 0.1 μmol/L
The residual ratio of test compound in each sample after 30 minutes was measured by LC-MS, and the metabolic stability in human hepatic microsome was calculated from the following formula. Metabolic stability in human hepatic microsome (mL/min/mg protein)=−LN (residual ratio)/30/0.1

human D2 receptor = human D2 receptor (Homo sapiens (Human), UniProt P14416); experiment: Test 1: binding activity for human D2 receptor ([3H]Spiperone, CHO cell membrane fraction); conditions: [3H]Spiperone, room temperature 60 minutes
Protocol: as §1

hERG channel = hERG channel (Homo sapiens (Human), UniProt Q12809); experiment: Test 5: inhibitory activity for hERG channel (whole cell patch clamp, hERG-CHO cells); assay type: cell-based; conditions: hERG-CHO cells, auto patch clamp
Protocol: Test 5: Evaluation of Inhibitory Activity for hERG Channel
Inhibitory activity of the present compound for hERG channel was measured by whole cell patch clamp method with an auto patch clamp system using CHO cells in which hERG channel involved in human rapidly activating delayed rectifier potassium current (IKr) was forcibly expressed.
hERG-CHO cells purchased from ChanTest Cop. were cultured in a CO2 incubator at 37° C., and dissociated from a flask with trypsin shortly before the measurement of hERG current to prepare a cell suspension.
The cell suspension, the extracellular fluid, the intracellular fluid, and the measurement plate were set in an auto patch clamp system, and hERG current was measured by whole cell patch clamp method. […] Each pulse interval was 15 seconds. The data analysis was carried out with Qube Assay Software (Sophion Sophion). The test was carried out by applying incrementally 4 concentrations of each test compound, and the average of the maximum peak tail currents which were obtained from the last 3 stimulations in each concentration was determined as the evaluated data.

human 5-HT7 receptor [3] = target: T1, human 5-HT7 receptor; experiment: Test 2: antagonist activity for human 5-HT7 receptor (aequorin luminescence, CHO-K1 cells); assay type: cell-based; conditions: Gα16
Protocol: Test 2: Evaluation of Antagonist Activity for Human 5-HT2A Receptor and Human 5-HT7 Receptor
Aequorin, Gα 16 protein, and each receptor were transiently expressed in CHO-K1 cells (Chinese hamster ovary). The cells were cultivated in a CO2 incubator at 37° C. overnight, seeded into a 384-well plate, and stood at room temperature for 2 hours. Each compound dissolved in DMSO was added thereto, and changes in luminescence were measured by FDSS/μCELL drug discovery screening support system (Hamamatsu Photonics K.K.). As for antagonist activity, inhibitory activity of each compound was calculated by setting the luminescence level of wells to which 10 μmol/L endogenous ligand was added as 100%.

T1 sequence (P34969 whole entry): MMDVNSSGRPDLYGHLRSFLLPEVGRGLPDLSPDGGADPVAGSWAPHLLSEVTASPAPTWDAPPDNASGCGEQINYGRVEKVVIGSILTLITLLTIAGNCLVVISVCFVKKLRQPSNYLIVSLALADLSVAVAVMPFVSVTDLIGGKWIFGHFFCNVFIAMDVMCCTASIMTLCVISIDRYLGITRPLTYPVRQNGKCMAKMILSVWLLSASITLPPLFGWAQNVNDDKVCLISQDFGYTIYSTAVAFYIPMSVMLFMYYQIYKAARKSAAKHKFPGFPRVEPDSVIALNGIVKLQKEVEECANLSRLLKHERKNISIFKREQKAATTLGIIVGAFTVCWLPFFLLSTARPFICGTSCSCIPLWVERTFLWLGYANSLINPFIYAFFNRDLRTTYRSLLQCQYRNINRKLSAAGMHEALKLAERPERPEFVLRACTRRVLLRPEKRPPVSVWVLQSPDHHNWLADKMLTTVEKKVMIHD
hERG channel, sequence (Q12809 whole entry): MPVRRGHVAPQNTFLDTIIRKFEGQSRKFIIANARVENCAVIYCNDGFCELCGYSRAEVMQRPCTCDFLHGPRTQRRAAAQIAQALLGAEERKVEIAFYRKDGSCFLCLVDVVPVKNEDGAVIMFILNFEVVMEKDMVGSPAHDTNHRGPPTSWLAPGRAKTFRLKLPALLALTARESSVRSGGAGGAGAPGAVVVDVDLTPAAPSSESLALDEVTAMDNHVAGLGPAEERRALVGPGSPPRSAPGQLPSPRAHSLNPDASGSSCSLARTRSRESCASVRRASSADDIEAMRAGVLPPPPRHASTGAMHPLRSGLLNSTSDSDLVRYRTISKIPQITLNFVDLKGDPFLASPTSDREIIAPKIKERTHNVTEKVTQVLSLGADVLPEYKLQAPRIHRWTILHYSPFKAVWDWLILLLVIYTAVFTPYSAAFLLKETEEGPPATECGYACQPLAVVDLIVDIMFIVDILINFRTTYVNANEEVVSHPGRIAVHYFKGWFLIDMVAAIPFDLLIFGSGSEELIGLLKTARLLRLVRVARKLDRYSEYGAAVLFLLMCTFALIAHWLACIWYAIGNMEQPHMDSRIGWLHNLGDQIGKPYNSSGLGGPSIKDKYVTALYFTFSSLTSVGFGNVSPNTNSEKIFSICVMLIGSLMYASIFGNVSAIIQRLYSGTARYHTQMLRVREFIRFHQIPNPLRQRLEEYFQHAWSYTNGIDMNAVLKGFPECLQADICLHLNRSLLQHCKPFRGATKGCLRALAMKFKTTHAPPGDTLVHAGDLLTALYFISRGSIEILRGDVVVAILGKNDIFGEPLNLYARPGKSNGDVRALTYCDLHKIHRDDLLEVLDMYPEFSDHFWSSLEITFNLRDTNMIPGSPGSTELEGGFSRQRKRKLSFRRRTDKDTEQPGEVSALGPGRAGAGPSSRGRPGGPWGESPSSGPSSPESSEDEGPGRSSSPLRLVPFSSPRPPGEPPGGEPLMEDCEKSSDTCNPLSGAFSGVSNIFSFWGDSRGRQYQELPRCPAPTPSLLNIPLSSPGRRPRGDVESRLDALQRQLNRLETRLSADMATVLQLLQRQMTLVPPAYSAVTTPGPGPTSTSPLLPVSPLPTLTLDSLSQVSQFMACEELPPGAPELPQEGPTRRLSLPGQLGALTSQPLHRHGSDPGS
human D2 receptor, sequence (P14416 whole entry): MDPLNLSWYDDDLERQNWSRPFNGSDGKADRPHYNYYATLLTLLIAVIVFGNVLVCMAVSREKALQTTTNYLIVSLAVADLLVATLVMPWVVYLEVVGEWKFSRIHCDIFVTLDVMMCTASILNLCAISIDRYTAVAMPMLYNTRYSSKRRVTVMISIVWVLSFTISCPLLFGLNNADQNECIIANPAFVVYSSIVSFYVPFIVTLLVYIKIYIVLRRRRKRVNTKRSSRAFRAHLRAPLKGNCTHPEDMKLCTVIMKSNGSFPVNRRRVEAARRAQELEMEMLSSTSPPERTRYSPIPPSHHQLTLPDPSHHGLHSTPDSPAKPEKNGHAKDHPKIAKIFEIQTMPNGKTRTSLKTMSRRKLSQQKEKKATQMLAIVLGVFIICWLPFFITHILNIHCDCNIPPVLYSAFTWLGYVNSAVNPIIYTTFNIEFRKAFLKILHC

Row | Ki (human 5-HT7 receptor [1]) [nM] | Metabolic stability in human hepatic microsome [2] [mL/min/mg protein] | Ki (human D2 receptor) [nM] | IC50 (human 5-HT7 receptor [3]) [nM] | Structure (SMILES) | IC50 (hERG channel) [nM]
1 | 2.3 | <0.05 | 105 | 61 | CCN(CCN1CCC(c2n[nH]c3cc(F)ccc23)CC1)C(=O)C(C)O (centres unmarked) [Example 19, N-Ethyl-N-{2-[4-(6-fluoro-1H-indazol-3-yl)piperidin-1-yl]ethyl}-2-hydroxypropanamide] | > 10000
2 | 5.8 | <0.05 | 528 | 40 | CCN(CCN1CCC(c2c[nH]c3ccccc23)CC1)C(=O)C(C)O (centres unmarked) [Example 22, N-Ethyl-2-hydroxy-N-{2-[4-(1H-indol-3-yl)piperidin-1-yl]ethyl}propanamide] | > 10000
3 | 7.9 | <0.05 | > 1000 | 68 | CCN(CCN1CCC(c2c[nH]c3ccccc23)CC1)C(=O)[C@H](C)O [Example 23, (2S)—N-Ethyl-2-hydroxy-N-{2-[4-(1H-indol-3-yl)piperidin-1-yl]ethyl}propanamide] | > 10000
4 | 7.7 | <0.05 | 1390 | 26 | CCN(CCN1CCC(c2noc3ccccc23)CC1)C(=O)C(C)O (centres unmarked) [Example 25] | > 10000
5 | 2.6 | <0.05 | 146 | 99 | CC[C@@H](O)C(=O)N(CC)CCN1CCC(c2noc3cc(F)ccc23)CC1 [Example 29] | 900
6 | 3.8 | <0.05 | < 100 | 81 | CC(C)N(CCN1CCC(c2noc3cc(F)ccc23)CC1)C(=O)CCO [Example 35] | 4300
7 | 1.1 | <0.05 | < 100 | 66 | CCN(CCN1CCC(c2noc3cc(F)ccc23)CC1)C(=O)C(C)CO (centres unmarked) [Example 37] | > 10000
8 | 22.6 | <0.05 | > 300 | 49 | CCN(CCN1CCC(c2noc3ccc(F)cc23)CC1)C(=O)[C@H](C)O [Example 45] | > 10000
9 | 8.9 | <0.05 | 457 | 43 | CCN(CCN1CCC(c2c[nH]c3ccccc23)CC1)C(=O)CCO [Example 47] | 5400
10 | 2.7 | <0.05 | 80 | 18 | CCN(CCN1CCC(c2c[nH]c3cc(F)ccc23)CC1)C(=O)CCO [Example 48] | 2900
11 | 22.6 | <0.05 | > 1000 | 16 | CCN(CCN1CCC(c2c[nH]c3ccccc23)CC1)C(=O)[C@@H](C)O [Example 49] | > 10000
12 | 13.6 | 0.079 | > 1000 | 62 | CCN(CCN1CCC(c2noc3ccc(C)cc23)CC1)S(=O)(=O)CCO [Example 59] | > 10000
13 | 12.7 | <0.05 | 514 | 15 | CCN(CCN1CCC(c2noc3ccccc23)CC1)S(=O)(=O)CCO [Example 61] | > 10000
14 | 2.8 | <0.05 | 104 | 28 | CCN(CCN1CCC(c2c[nH]c3cc(F)ccc23)CC1)S(=O)(=O)CCO [Example 62] | 5400

Second part, the molecule before the results:

Row | Structure (SMILES) | Ki (human 5-HT7 receptor [1]) [nM] | Metabolic stability in human hepatic microsome [2] [mL/min/mg protein] | Ki (human D2 receptor) [nM] | IC50 (human 5-HT7 receptor [3]) [nM] | IC50 (hERG channel) [nM]
15 | CCN(CCN1CCN(c2noc3ccccc23)CC1)C(=O)C(C)O (centres unmarked) [Example 26] | 22.1 | <0.05 | > 10000 | 71 | > 10000
16 | CCN(CCN1CCN(c2noc3cc(F)ccc23)CC1)C(=O)C(C)O (centres unmarked) [Example 27] | 11.1 | <0.05 | 2160 | 73 | > 10000
17 | CC(O)C(=O)N(CCN1CCC(c2noc3cc(F)ccc23)CC1)CC1CC1 (centres unmarked) [Example 30] | 6.6 | <0.05 | 153 | 39 | 1200
18 | CC(O)C(=O)N(CCN1CCC(c2noc3cc(F)ccc23)CC1)C(C)C (centres unmarked) [Example 31] | 1.2 | <0.05 | 89 | 64 | 3100
19 | CCN(CCN1CCC(c2noc3cc(F)ccc23)CC1)C(=O)C1CCCCC1O (centres unmarked) [Example 33] | 1.6 | 0.268 | 55 | 59 | 2200
20 | CCN(CCN1CCC(c2noc3cc(F)ccc23)CC1)C(=O)C(O)C(F)(F)F (centres unmarked) [Example 34] | 4.6 | <0.05 | 247 | 78 | 7300
21 | CCN(CCCN1CCC(c2noc3cc(F)ccc23)CC1)C(=O)[C@H](C)O [Example 38] | 9.6 | <0.05 | 352 | 59 | > 10000
22 | CC(C)N(CCN1CCC(c2noc3cc(F)ccc23)CC1)C(=O)[C@H](C)O [Example 41] | 1.8 | <0.05 | < 100 | 7 | 6700
23 | CC(C)N(CCN1CCC(c2noc3cc(F)ccc23)CC1)C(=O)[C@@H](C)O [Example 42] | 2.5 | <0.05 | 74 | 9 | 6400
24 | CCN(CCCN1CCC(c2noc3cc(F)ccc23)CC1)S(=O)(=O)CCO [Example 53] | 1.4 | <0.05 | < 100 | 44 | 7200
25 | CCN(CCCN1CCC(c2noc3cc(F)ccc23)CC1)S(=O)(=O)C(C)CO (centres unmarked) [Example 56] | 0.4 | <0.05 | < 100 | 6 | 2100
26 | CCN(CCN1CCC(c2noc3cc(F)c(C)cc23)CC1)S(=O)(=O)CCO [Example 58] | 19.4 | <0.05 | > 1000 | 103 | > 10000
27 | CCN(CCN1CCC(n2ncc3cc(F)ccc32)CC1)S(=O)(=O)CCO [Example 63] | 6.9 | <0.05 | 532 | 46 | 14500
28 | CCN(CCN1CCC(n2ncc3cc(F)ccc32)CC1)S(=O)(=O)C(C)CO (centres unmarked) [Example 64] | 2.4 | 0.097 | 348 | 101 | > 10000
29 | CCN(CCN1CCC(c2noc3cc(F)ccc23)CC1)C(=O)C1CNCC1O (centres unmarked) [Example 66] | 5.4 | <0.05 | 212 | 70 | > 10000
30 | CCN(CCN1CCC(c2noc3cc(F)ccc23)CC1)C(=O)C1CNCCC1O (centres unmarked) [Example 67] | 0.9 | <0.05 | < 100 | 72 | > 10000
31 | CCN(CCN1CCC(c2noc3cc(F)ccc23)CC1)C(=O)C1(O)CCCNC1 (centres unmarked) [Example 69] | 1.5 | <0.05 | < 100 | 85 | > 10000
